Calls of active or inactive are those of the source. The calls are words filed in the database; no cut-off is given here.
Tests used:
3T3-L1 [1] = assay: Downregulation of C/EBPalpha mRNA expression in mouse 3T3L1 cells up to 10 uM incubated for 8 days followed by compound wash out measured by RT-PCR method; type: functional, cell-based
3T3-L1 [2] = assay: Downregulation of SCD1 mRNA expression in mouse 3T3L1 cells up to 10 uM incubated for 8 days followed by compound wash out measured by RT-PCR method; type: functional, cell-based
Mus musculus [3] = assay: Antiobesity activity in HFD-induced obese C57BL/6N mouse model assessed as reduction in epididymal WAT adipocyte size at 50 mg/kg, po administered once daily for 12 weeks by H and E staining based microscopic method; type: functional, organism-based
3T3-L1 [4] = assay: Downregulation of PPARgamma mRNA expression in mouse 3T3L1 cells up to 10 uM incubated for 8 days followed by compound wash out measured by RT-PCR method; type: functional, cell-based
3T3-L1 [5] = assay: Antiinflammatory activity in mouse 3T3L1 cells assessed as reduction in TNFalpha mRNA expression up to 10 uM incubated for 8 days followed by compound wash out measured by RT-PCR method; type: functional, cell-based
3T3-L1 [6] = assay: Anti-adipogenic activity in mouse 3T3L1 cells grown in differentiation media assessed as decrease in lipid accumulation up to 10 uM incubated for 8 days by Oil Red O staining based method; type: functional
Mus musculus [7] = assay: Antiobesity activity in HFD-induced obese C57BL/6N mouse model assessed as decrease in visceral fat mass at 50 mg/kg, po administered once daily for 12 weeks; type: functional, organism-based
3T3-L1 [8] = assay: Inhibition of cell differentiation in mouse 3T3L1 cells assessed as reduction in pre-adipocyte differentiation into matured adipocytes at 5 uM incubated for 8 days followed by compound wash out measured by oil red O staining based method relative to control; type: functional; details: 3T3-L1, 192 h
3T3-L1 [9] = assay: Cytotoxicity against mouse 3T3L1 cells assessed as reduction in cell viability up to 10 uM; type: cell-based
3T3-L1 [10] = assay: Antiinflammatory activity in mouse 3T3L1 cells assessed as reduction in IL-6 mRNA expression up to 10 uM incubated for 8 days followed by compound wash out measured by RT-PCR method; type: functional, cell-based
Mus musculus [11] = assay: Antiobesity activity in HFD-induced obese C57BL/6N mouse model assessed as decrease in epididymal fat mass level at 50 mg/kg, po administered once daily for 12 weeks; type: functional, organism-based
3T3-L1 [12] = assay: Downregulation of LPL mRNA expression in mouse 3T3L1 cells up to 10 uM incubated for 8 days followed by compound wash out measured by RT-PCR method; type: functional, cell-based
3T3-L1 [13] = assay: Antiinflammatory activity in mouse 3T3L1 cells assessed as reduction in NFkappaB1 mRNA expression level up to 10 uM incubated for 8 days followed by compound wash out measured by RT-PCR method; type: functional, cell-based
Mus musculus [14] = assay: Antiobesity activity in HFD-induced obese C57BL/6N mouse model assessed as decrease in body weight at 50 mg/kg, po administered once daily for 12 weeks and measured every week for 12 weeks; type: functional, organism-based
3T3-L1 [15] = assay: Anti-adipogenic activity in mouse 3T3L1 cells grown in differentiation media assessed as decrease in lipid accumulation incubated for 8 days by Oil Red O staining based method; type: functional, cell-based
3T3-L1 [16] = assay: Downregulation of FAS mRNA expression in mouse 3T3L1 cells up to 10 uM incubated for 8 days followed by compound wash out measured by RT-PCR method; type: functional, cell-based
3T3-L1 [17] = assay: Downregulation of FABP4 mRNA expression in mouse 3T3L1 cells up to 10 uM incubated for 8 days followed by compound wash out measured by RT-PCR method; type: functional, cell-based
3T3-L1 [18] = assay: Downregulation of DGAT2 mRNA expression in mouse 3T3L1 cells up to 10 uM incubated for 8 days followed by compound wash out measured by RT-PCR method; type: functional, cell-based
3T3-L1 [19] = assay: Downregulation of SREBP-1c mRNA expression in mouse 3T3L1 cells up to 10 uM incubated for 8 days followed by compound wash out measured by RT-PCR method; type: functional, cell-based

For C=C[C@@H]1C2=CCOC(=O)C2=CO[C@H]1O[C@@H]1O[C@H](CO)[C@@H](O)[C@H](O)[C@H]1O [GENTIOPICROSIDE], the Activity (3T3-L1 [1]) was “Active”, the Activity (3T3-L1 [2]) was “Active” and the Activity (Mus musculus [3]) was “Active”. The Activity (3T3-L1 [4]) was “Active”, the Activity (3T3-L1 [5]) was “Active” and the “inhibition (INH)” value (3T3-L1 [6]) was “<=64%”. For the same compound, the Activity (Mus musculus [7]) was “Active”, the inhibition at 5 µM (3T3-L1 [8]) was no more than 72% and the Activity (3T3-L1 [9]) was “Non-Toxic”. The Activity (3T3-L1 [10]) was “Active”, the Activity (Mus musculus [11]) was “Active” and the Activity (3T3-L1 [12]) was “Active”. The Activity (3T3-L1 [13]) was “Active”, the Activity (Mus musculus [14]) was “Active” and the Activity (3T3-L1 [15]) was “Dose-dependent effect”. For the same compound, the Activity (3T3-L1 [16]) was “Active”, the Activity (3T3-L1 [17]) was “Active” and the Activity (3T3-L1 [18]) was “Active”. For the same compound, the Activity (3T3-L1 [19]) was “Active”.
